In ChEMBL document CHEMBL1157847, “Dichloro-4-quinolinol-3-carboxylic acid: synthesis and antioxidant abilities to scavenge radicals and to protect methyl linoleate and DNA” (Eur J Med Chem, 2010) one finds Activity data, which are given here for six molecules.

Holding throughout (type): functional
For assay [1], the system named is Radical scavenging activity. The assay is described as follows: Antioxidant activity assessed as residual DPPH radical scavenging activity at 1.5 mM after 30 mins relative to control. Background: Loss of DPPH colour is used to gauge radical scavenging.
A short description of assay [2]: Antioxidant activity against AAPH-induced DNA damage assessed as TBARS production at 200 uM after 4 hrs relative to control.
Assay [3] can be described thus: Antioxidant activity against Cu(2+)/GSH-induced DNA damage assessed as TBARS production at 200 uM after 4 hrs relative to control.
Assay [4] is described as follows: Antioxidant activity against beta-carotene bleaching assessed as decrease of absorbance at 0.3 mM after 100 mins relative to control. Details: scale not given: the % may be the effect or the level left.
Assay [5] can be described thus: Antioxidant activity assessed as residual ABTS cationic radical scavenging activity at 1.5 mM after 30 mins relative to control.
Assay [6] can be described thus: Antioxidant activity against hydroxyl radical-induced DNA damage assessed as TBARS production at 400 uM after 30 mins relative to control.
The nature of assay [7]: Antioxidant activity against AAPH-induced linoleic acid oxidation assessed as exhausted methyl linoleate at 2 mM after 4 hrs relative to control.
Assay [8] is described as follows: Antioxidant activity assessed as residual galvinoxyl radical scavenging activity at 1.5 mM after 30 mins relative to control.

Each structure is given as a SMILES string.

With `O=C(O)c1cnc2c(Cl)cc(Cl)cc2c1O`, the Activity in assay [1] is 93.8%; in assay [2], 99.4%; in assay [3], 95.4%; in assay [4] it was 129%; in assay [5] it was 104%; in assay [6], 83.3%. The results for the Activity in assay [7] and in assay [8] were 7.3% and 104%, respectively.
With `O=C(O)c1cnc2cc(Cl)ccc2c1O`, the Activity in assay [1] stood at 94.7%; in assay [2] it was 95%; in assay [3] it was 88.9%; in assay [4] it was 91.1%; in assay [5], 102%; in assay [6], 102%. Moreover, the Activity in assay [7] stood at 107%; in assay [8], 104%.
As to `O=C(O)c1cnc2cc(Cl)cc(Cl)c2c1O`, the Activity is 91.2% in assay [1]; 98.6% in assay [2]; 98.3% in assay [3]; 77.3% in assay [4]; 90% in assay [5]; 92.7% in assay [6]. Further, the Activity in assay [7] was found to be 111%; in assay [8], 93.5%.
Take `O=C(O)c1cnc2c(Cl)ccc(Cl)c2c1O`: the Activity was determined as 94.1% in assay [1]; 95.4% in assay [2]; 103% in assay [3]; 77.3% in assay [4]; 99.9% in assay [5]; 84.6% in assay [6]. Besides, the Activity was found to be 62.7% in assay [7] and 104% in assay [8].
With `O=C(O)c1cnc2c(Cl)c(Cl)ccc2c1O`, the Activity was found to be 93.4% in assay [1]; 97.9% in assay [2]; 111% in assay [3]; 108% in assay [4]; 97.5% in assay [5]; 88.7% in assay [6]. Further, the Activity in assay [7] came out at 41.9%; in assay [8] it was 102%.
On to `O=C(O)c1cnc2ccccc2c1O`, for which the Activity in assay [1] is 94.6%; in assay [2], 103%; in assay [3], 96.6%; in assay [4], 77.3%; in assay [5] it was 101%; in assay [6], 90.4%. Further, the Activity stood at 113% in assay [7] and 102% in assay [8].
